Assay results reported in patent publication US6825230B2, “Spiro and dispiro 1,2,4-trixolane antimalarials” (Medicines for Malaria Venture MMV, priority 2002, dated 2004).
Values after ≈ are worked out from the molar mass of the structure shown. Like-named read-outs stand apart in the source and are kept apart here.

Legend:
[1] = tested on: Schistosoma mansoni 21-day-old schistosomules; experiment: Effect on 21-day-old schistosomules in infected mice; assay type: in vivo; conditions: for % reduction of schistosomule growth at day 21 after per os application of 200 mg/kg, FWR (%): female worm reduction rate
Experimental: Mice were infected with 100 Schistosoma mansoni cercariae on day 21 post-treatment. Each group was treated per os with trioxolanes at a single dose of 200 mg/kg. […] All groups were killed 4 weeks after treatment and the liver and intestine were removed and separated. The liver and intestine were compressed and alive male and female worms could be seen and counted. The effect of the compounds was evaluated by mean total and female worm burden.

[2] = tested on: ANKA strain of P. berghei; experiment: Single dose STI in vivo screen in infected mice; set-up: species or system Plasmodium berghei; conditions: for Survival (days) 10 mg/kg po: single 10 mg/kg po in 3% ethanol and 7% Tween 80; for Survival (days) 10 mg/kg po / Survival (days) 10 mg/kg SSV po / Survival (days) 10 mg/kg sc: untreated 6-7 days; for Activity (%) 10 mg/kg po: single 10 mg/kg po in 3% ethanol and 7% Tween 80 on day 1 post-infection; for Survival (days) 10 mg/kg SSV po: single 10 mg/kg po in SSV; for Activity (%) 10 mg/kg SSV po: single 10 mg/kg po in standard suspending vehicle (SSV) on day 1 post-infection; for Survival (days) 10 mg/kg sc: single 10 mg/kg sc in 3% ethanol and 7% Tween 80; for Activity (%) 10 mg/kg sc: single 10 mg/kg sc in 3% ethanol and 7% Tween 80 on day 1 post-infection
[3] = tested on: chloroquine-resistant K1 strain of P. falciparum; experiment: In vitro antimalarial semiautomated microdilution assay ([3H]-hypoxanthine incorporation), K1 strain; assay type: cell-based, Plasmodium falciparum; conditions: Plasmodium falciparum; chloroquine-resistant K1 strain, 72 h incubation; read-out: IC50 (ng/ml) K1
Summary of the method: (§1)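 IC50 values come from Logit regression of [3H]-hypoxanthine uptake data. Parasites were intraerythrocytic P. falciparum forms taken from asynchronous stock cultures and tested by semiautomated microdilution.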

[4] = tested on: chloroquine-sensitive NF54 strain of P. falciparum; experiment: In vitro antimalarial semiautomated microdilution assay ([3H]-hypoxanthine incorporation), NF54 strain; assay type: cell-based, Plasmodium falciparum; conditions: Plasmodium falciparum
Summary of the method: as §1

P. berghei ANKA strain = experiment: Divided 3x3 mg/kg and 3x1 mg/kg po doses in infected mice; assay type: in vivo, Plasmodium berghei; conditions: for Cured infected mice at the 3×3 mg/kg dose: 3 mg/kg po (SSV) on days 1, 2, 3 post-infection; for Activity (%): percent reduction of parasitemia vs control on day 4
Experimental: Moro NMRI male mice (Fu Albino specific pathogen free) weighing 18±2 g were infected intravenously (i.v.) with 2×10^7 P. berghei ANKA strain-infected erythrocytes from donor mice on day 0 of the experiment. From donor mice with circa 30% parasitemia, heparinized blood was taken and diluted in physiological saline to 10^8 parasitized erythrocytes per ml. An aliquot (0.2 ml) of this suspension was injected i.v. into experimental and control groups of mice. […] Throughout the experiments, mice were kept in groups of three or five animals in Makrolon type II cages in an air-conditioned animal room at 22 to 23° C.
They were administered per os (p.o.) in a total volume of 0.01 ml per gram of mouse. The activity of the compound was determined by a variety of methods outlined in subsequent sections. Survival time was also recorded, and survival to day 30 post-infection was considered to be a cure.
The second experiment consists of administration of divided 3×3 mg/kg and 3×1 mg/kg po doses administered on days 1, 2, and 3 post-infection. On day 4 post-infection, blood smears of all animals were prepared and stained with Giemsa. […] Compounds were administered orally in the SSV vehicle.

[5] = single 200 mg/kg per os, 21-day-old schistosomules
[6] = single 200 mg/kg per os, 21-day-old schistosomules, total worm reduction rate
[7] = percent reduction in parasitemia on day 3
[8] = chloroquine-sensitive NF54 strain, 72 h incubation, read-out: IC50 (ng/ml) NF54
[9] = percent reduction in parasitemia on day 3, hydrochloride, 10 mg/kg
[10] = 3 × 1 mg/kg p.o. SSV on days 1, 2, 3 post-infection
[11] = 3 × 3 mg/kg p.o. SSV on days 1, 2, 3 post-infection

SMILES: ON=C1CCC2(CC1)OOC1(O2)C2CC3CC(C2)CC1C3 (stereo not drawn) [OZ16]
- % reduction of schistosomule growth at day 21 after per os application of 200 mg/kg, FWR (%) [1, 5]: 77%
- % reduction of schistosomule growth at day 21 after per os application of 200 mg/kg, TWR (%) [1, 6]: 78%

SMILES: c1ccc(CON=C2CCC3(CC2)OOC2(O3)C3CC4CC(C3)CC2C4)cc1 (stereo not drawn) [OZ19]
- % reduction of schistosomule growth at day 21 after per os application of 200 mg/kg, FWR (%) [1, 5]: 74%
- % reduction of schistosomule growth at day 21 after per os application of 200 mg/kg, TWR (%) [1, 6]: 77%

SMILES: C1CC2(CCO1)OOC1(O2)C2CC3CC(C2)CC1C3 (stereo not drawn) [OZ22]
- % reduction of schistosomule growth at day 21 after per os application of 200 mg/kg, FWR (%) [1, 5]: 76%
- % reduction of schistosomule growth at day 21 after per os application of 200 mg/kg, TWR (%) [1, 6]: 75%

SMILES: CC1(C)CC(C)(C)CC2(C1)OOC1(O2)C2CC3CC(C2)CC1C3 (stereo not drawn) [OZ26]
- % reduction of schistosomule growth at day 21 after per os application of 200 mg/kg, FWR (%) [1, 5]: 40%
- % reduction of schistosomule growth at day 21 after per os application of 200 mg/kg, TWR (%) [1, 6]: 37%

SMILES: CC(C)(C)ON=C1CCC2(CC1)OOC1(O2)C2CC3CC(C2)CC1C3 (stereo not drawn) [OZ28]
- % reduction of schistosomule growth at day 21 after per os application of 200 mg/kg, FWR (%) [1, 5]: 87%
- % reduction of schistosomule growth at day 21 after per os application of 200 mg/kg, TWR (%) [1, 6]: 81%

SMILES: O=C(NN=C1CCC2(CC1)OOC1(O2)C2CC3CC(C2)CC1C3)Nc1ccccc1 (stereo not drawn) [OZ30]
- % reduction of schistosomule growth at day 21 after per os application of 200 mg/kg, FWR (%) [1, 5]: 12%
- % reduction of schistosomule growth at day 21 after per os application of 200 mg/kg, TWR (%) [1, 6]: 16%

SMILES: CC1(C)CCC2(CC1)OOC1(O2)C2CC3CC(C2)CC1C3 (stereo not drawn) [OZ33]
- % reduction of schistosomule growth at day 21 after per os application of 200 mg/kg, FWR (%) [1, 5]: 14%
- % reduction of schistosomule growth at day 21 after per os application of 200 mg/kg, TWR (%) [1, 6]: 28%

SMILES: CC(C)(C)OC(=O)N1CCC2(CC1)OOC1(O2)C2CC3CC(C2)CC1C3 (stereo not drawn) [OZ35]
- % reduction of schistosomule growth at day 21 after per os application of 200 mg/kg, FWR (%) [1, 5]: 63%
- % reduction of schistosomule growth at day 21 after per os application of 200 mg/kg, TWR (%) [1, 6]: 73%

SMILES: CON=C1CC2CC3(CC2C1)OOC1(O3)C2CC3CC(C2)CC1C3 (stereo not drawn) [OZ37]
- % reduction of schistosomule growth at day 21 after per os application of 200 mg/kg, FWR (%) [1, 5]: 53%
- % reduction of schistosomule growth at day 21 after per os application of 200 mg/kg, TWR (%) [1, 6]: 63%

SMILES: CS(=O)(=O)N1CCC2(CC1)OOC1(O2)C2CC3CC(C2)CC1C3 (stereo not drawn) [OZ56]
- % reduction of schistosomule growth at day 21 after per os application of 200 mg/kg, FWR (%) [1, 5]: 66%
- % reduction of schistosomule growth at day 21 after per os application of 200 mg/kg, TWR (%) [1, 6]: 69%

SMILES: CC1(O)CCC2(CC1)OOC1(O2)C2CC3CC(C2)CC1C3 (stereo not drawn) [OZ90]
- % reduction of schistosomule growth at day 21 after per os application of 200 mg/kg, FWR (%) [1, 5]: 79%
- % reduction of schistosomule growth at day 21 after per os application of 200 mg/kg, TWR (%) [1, 6]: 81%

SMILES: CC(C)(C)CC(=O)N1CCC2(CC1)OOC1(O2)C2CC3CC(C2)CC1C3 (stereo not drawn) [OZ111, Adamantane-2-spiro-3′-8′-(3′,3′-dimethylbutanoyl)-1′,2′,4′-trioxa-8′-azaspiro[4.5]decane]
- % reduction of schistosomule growth at day 21 after per os application of 200 mg/kg, FWR (%) [1, 5]: 68%
- % reduction of schistosomule growth at day 21 after per os application of 200 mg/kg, TWR (%) [1, 6]: 71%
- Survival (days) 10 mg/kg po [2]: 7.7 days
- Activity (%) 10 mg/kg po [2, 7]: 98%
- Survival (days) 10 mg/kg SSV po [2]: 6.3 days
- Activity (%) 10 mg/kg SSV po [2, 7]: 79%
- Survival (days) 10 mg/kg sc [2]: 8.3 days
- Activity (%) 10 mg/kg sc [2, 7]: 99.94%

SMILES: OC[C@H]1CC[C@]2(CC1)OOC1(O2)C2CC3CC(C2)CC1C3 (stereo partly drawn) [OZ119]
- % reduction of schistosomule growth at day 21 after per os application of 200 mg/kg, TWR (%) ([1]; po, 200 mg/kg, 504 h): 88%
- % reduction of schistosomule growth at day 21 after per os application of 200 mg/kg, FWR (%) [1, 5]: 87%
- IC50 [3]: 0.83 ng/mL (≈ 2.82 nM)
- Survival (days) 10 mg/kg po [2]: 7.7 days
- Activity (%) 10 mg/kg po [2, 7]: 99.29%
- Survival (days) 10 mg/kg SSV po [2]: 8.0 days
- Activity (%) 10 mg/kg SSV po [2, 7]: 99.15%
- Survival (days) 10 mg/kg sc [2]: 8.3 days
- Activity (%) 10 mg/kg sc [2, 7]: 99.66%
- IC50 [4, 8]: 0.2 ng/mL (≈ 0.679 nM)

SMILES: NC[C@H]1CC[C@]2(CC1)OOC1(O2)C2CC3CC(C2)CC1C3 (stereo partly drawn) [OZ163]
- % reduction of schistosomule growth at day 21 after per os application of 200 mg/kg, FWR (%) [1, 5]: 80%
- Survival (days) 10 mg/kg po ([2]; hydrochloride, 10 mg/kg): 8.0 days
- Activity (%) 10 mg/kg po [2, 9]: 99.90%
- Survival (days) 10 mg/kg SSV po ([2]; hydrochloride, 10 mg/kg): 9.0 days
- Activity (%) 10 mg/kg SSV po [2, 9]: 99.94%
- Survival (days) 10 mg/kg sc ([2]; hydrochloride, 10 mg/kg): 9.7 days
- Activity (%) 10 mg/kg sc [2, 9]: 100%
- IC50 ([4]; NF54, 72 h, read-out: IC50 (ng/ml) NF54, chloroquine-sensitive NF54 strain, 72 h incubation): 0.2 ng/mL (≈ 0.682 nM)

SMILES: O=C(NC[C@H]1CC[C@]2(CC1)OO[C@]1(O2)C2CC3CC(C2)CC1C3)N1CCNCC1 [OZ329]
- IC50 [3]: 0.43 ng/mL (≈ 1.06 nM)
- Cured infected mice at the 3×3 mg/kg dose (P. berghei ANKA strain): 2/5
- Survival (days) 3 mg/kg SSV po ([2]; single 3 mg/kg po in SSV): 9.2 days
- Activity (%) 3 mg/kg SSV po ([2]; single 3 mg/kg po in SSV, percent reduction in parasitemia on day 3): 99.50%
- Survival (days) 10 mg/kg SSV po [2]: 11.2 days
- Activity (%) 10 mg/kg SSV po [2, 7]: 99.97%
- IC50 [4, 8]: 0.68 ng/mL (≈ 1.68 nM)

SMILES: NC1CCN(C(=O)C[C@H]2CC[C@]3(CC2)OO[C@]2(O3)C3CC4CC(C3)CC2C4)CC1 [OZ339]
- Cured infected mice at the 3×3 mg/kg dose (P. berghei ANKA strain): 3/5
- Survival (days) 3 mg/kg SSV po ([2]; single 3 mg/kg po in SSV): 9.2 days
- Survival (days) 10 mg/kg SSV po [2]: 10.2 days

SMILES: CS(=O)(=O)O.O=C(O)CNCC1CCC2(CC1)OOC1(O2)C2CC3CC(C2)CC1C3 (stereo not drawn) [compound 309]
- Survival (P. berghei ANKA strain; [10]): 9.4 days
- Activity (%) (P. berghei ANKA strain; [10]): 66%
- Survival (P. berghei ANKA strain; [11]): 9.2 days
- Activity (%) (P. berghei ANKA strain; [11]): 99%

SMILES: NC1(C(=O)NCC2CCC3(CC2)OOC2(O3)C3CC4CC(C3)CC2C4)CCCC1 (stereo not drawn) [compound 317]
- Survival (P. berghei ANKA strain; [10]): 11.4 days
- Activity (%) (P. berghei ANKA strain; [10]): 73%
- Survival (P. berghei ANKA strain; [11]): 16.8 days
- Activity (%) (P. berghei ANKA strain; [11]): 100%

SMILES: CS(=O)(=O)O.NC(=O)CCNCC1CCC2(CC1)OOC1(O2)C2CC3CC(C2)CC1C3 (stereo not drawn) [compound 319]
- Survival (P. berghei ANKA strain; [10]): 13 days
- Activity (%) (P. berghei ANKA strain; [10]): 92%
- Survival (P. berghei ANKA strain; [11]): 11.2 days
- Activity (%) (P. berghei ANKA strain; [11]): 99.97%

SMILES: NC(=O)c1cn(CC2CCC3(CC2)OOC2(O3)C3CC4CC(C3)CC2C4)cn1 (stereo not drawn) [compound 320]
- Survival (P. berghei ANKA strain; [10]): 8.6 days
- Activity (%) (P. berghei ANKA strain; [10]): 50%
- Survival (P. berghei ANKA strain; [11]): 9.6 days
- Activity (%) (P. berghei ANKA strain; [11]): 96%

SMILES: CS(=O)(=O)O.NCCOc1ccc(C2CCC3(CC2)OOC2(O3)C3CC4CC(C3)CC2C4)cc1 (stereo not drawn) [compound 323]
- Survival (P. berghei ANKA strain; [10]): 14.4 days
- Activity (%) (P. berghei ANKA strain; [10]): 66%
- Survival (P. berghei ANKA strain; [11]): 14.4 days
- Activity (%) (P. berghei ANKA strain; [11]): 99.95%
